Entries after “also recorded” stand apart in the source; their conditions may differ. Counter-ions that a name gives are not always drawn. Like-named read-outs stand apart in the source and are kept apart here.
Columns and labels:
[1] = tested on: human colon cancer HT-29; assay: HT-29 human colon cancer xenograft in immunodeficient mice (Example 2); format: in vivo, human (xenograft in immunodeficient NIH-1 mice)
Excerpt: (§1) In these four examples, three xenograft lines of human colon cancer were selected to test the effectiveness of various drugs or compounds in treating human colon cancer. These xenograft lines included the following: (1) A moderate-to-poorly differentiated human colon cancer HT-29; (2) poorly differentiated colon cancer lines designated CASE; and (3) SW48. Liebowitz, A. et al., Cancer Res. 36:4562 (1976); and Fogh, J., et al., Human Tumor Cells […], J. Fogh, ed. Plenum Press, New York, pp. 115-159 (1975). The HT-29, CASE and SW48 cell lines were implanted into immunodeficient NIH-1 mice. Each control or drug-treated group included 6 males. Tumor fragments were implanted on day 0. For each implant, 50 mg of wet weight finely minced tumor tissue in 0.5 ml EMEM (Gibco, Grand Island, N.Y.) was injected under the skin over the right dorsal chest region. The drugs were formulated in Tween 80:0.15 NaCl and injected subcutaneously, with the exception of doxorubicin, which was injected intravenously. The treatment started on day 7 and continued 2x/week for 5-6 weeks. Drug doses were based on an established median toxic dose for the schedule applied. Controls were treated with the solvent only. The tumors were measured in three dimensions with a caliper, and tumor volume calculated. The care and treatment of experimental mice was in accordance with institutional guidelines.
In FIG. 2, 9-AC represents 9-amino-20(RS)-camptothecin. The means of tumor volumes in cubic centimeters (cm^3) were plotted against time; S.D. (standard deviation) of the means was less than 15% of the value.

[2] = tested on: subcutaneous tumors; format: in vivo, mice
[3] = tested on: SW48 human colon cancer cell line; assay: SW48 human colon cancer xenograft in immunodeficient mice (Example 5); format: in vivo, human (xenograft in immunodeficient NIH-1 mice)
Excerpt: as §1
In Example 5, a course of treatment was carried out with the SW48 human colon cancer cell line. This tumor line is extremely unresponsive to treatment. Liebowitz, A., et al., Cancer Res. 36:4562 (1976); and Fogh, J., et al., Human Tumor Cells in Vitro, J. Fogh, ed. Plenum Press, New York, pp. 115-159 (1975).
It should be noted that the first course of treatments of the CASE and SW48 lines, described above, started with well-established tumors, averaging 0.2-0.25 cm^3 in volume. In Example 5, day=35 SW48 tumors (average size 2.5 cm^3), were selected for the first treatment with 9-amino-20(RS)-camptothecin. […]

[4] = tested on: CASE cell line; assay: CASE human colon cancer xenograft in immunodeficient mice (Examples 3, 4, 6); format: in vivo, human (xenograft in immunodeficient NIH-1 mice)
Excerpt: as §1
In Example 3, the CASE cell line was employed.
Example 4 illustrates the results of an experiment in which a second course of treatment followed a first course of treatment. On day 51 after tumor implantation, mice with CASE tumors and minimal disease received the second course of therapy. These mice received a total of 14 injections (doses) of 12.5 mg/kg body weight/dose (FIG. 4).
(§2) Daily injections or 2 injections per week of 10,11-methylenedioxy-20(RS)-camptothecin (total doses 50-70 mg/kg of body weight) stopped the growth of day-7 CASE tumors for a period of 4-6 weeks in 6/6 mice. Five injections of 10,11-methylenedioxy-20(RS)-camptothecin sodium salt (10 mg/kg body weight/dose) stopped the growth of day-7 CASE tumors in 6/6 mice for a period of 4 weeks. Both drugs inhibited at 30 mg/kg body weight (total dose) the growth of metastases of human colon cancer in the liver of immunodeficient mice, and increased the survival of such mice by ~100% (from average of 23 to 46 days).

[5] = overall toxicity in tumor-bearing mice (Example 7); format: in vivo
Excerpt: Another important feature of the method provided by the present invention relates to the relatively low or no apparent overall toxicity of the camptothecin compounds administered in accordance herein. Overall toxicity can be judged using various criteria. For example, loss of body weight in a subject over 10% of the initially recorded body weight (i.e., before treatment) can be considered as one sign of toxicity. In addition, loss of overall mobility and activity and signs of diarrhea or cystitis in a subject can also be interpreted as evidence of toxicity. In one of the examples which follow, the overall toxicity of the camptothecin compounds was evaluated.
The overall toxicity of the colon tumor-inhibiting camptothecin compounds was next to be evaluated at various dosages. The overall toxicity of 9-amino-20(RS)-camptothecin, 10,11-methylenedioxy-camptothecin and the sodium salt of 10,11-methylenedioxy-camptothecin was evaluated in this example as follows: tumor fragments were implanted under the skin of 5-6 mice in each group beginning on day 0. The mice were injected with one of the compounds beginning on day 7 after visible signs that malignant growth of the implanted tumor had occurred. The injections of the compound were given at predetermined doses of 10 or 12.5 mg/kg of body weight per week for a total of 3-6 weeks. Injections were daily or given two times per week. The body weights of the controls (mice with tumors, injected with placebo) and that of the drug-treated mice were taken two times each week and recorded. Overall toxicity was determined in the following way: loss of body weight after treatment in a subject of more than 10% over the initial body weight of the subject recorded at the beginning of the experiment, was considered a sign of toxicity. The mice were also monitored for their ability to regain the lost body weight. Regaining entirely its lost body weight would therefore be a sign of low toxicity in a subject. In addition, mice were monitored for their overall mobility and activity as well as for signs of diarrhea or cystitis. Mobility/activity was judged on a sliding scale of 1 to 5. That is, a score of 1 indicated good mobility/activity and a score of 5 indicated poor mobility/activity. Diarrhea and cystitis were judged on a plus/minus basis.

[6] = tested on: metastases of human colon cancer in the liver; assay: metastases of human colon cancer in the liver of immunodeficient mice (Example 6); format: in vivo; conditions: 30 mg/kg body weight (total dose); for increase of survival: from average of 23 days; for average survival: increased from 23 days
Experimental: as §2

[7] = tested on: topoisomerase I; assay: topoisomerase I-directed screens; format: biochemical
[8] = tested on: colon cancer; conditions: cited from earlier work
[9] = tested on: mouse leukemias; conditions: in vivo; cited from earlier work
[10] = tested on: advanced incurable cancers; conditions: cited from earlier work
[11] = first course, 12.5 mg/kg body weight
[12] = daily or 2 injections per week, total doses 50-70 mg/kg
[13] = five injections, 10 mg/kg body weight/dose
[14] = daily treatment, total dose 25 mg/kg
[15] = twice/week treatment, total dose 50 mg/kg
[16] = patients with metastases to the liver

## CCC1(O)C(=O)OCc2c1cc1n(c2=O)Cc2cc3c(N)cccc3nc2-1 (racemic) [9-amino-20(RS)-camptothecin]
[1]; 10 mg/kg body weight/dose
  duration of remission (mean+S.D.): 62 ± 20 days
[1]; 10 mg/kg/dose s.c., twice a week, 6 weeks
  mice with no evidence of disease (NED) or minimal disease (tumor volume=0.1 cm^3): 5/6
[1]; 12.5 mg/kg body weight/dose
  duration of remission (mean+S.D.): 56 ± 15 days
  mice with NED or minimal disease: 6/6
[1]; second course, average tumor size 8.3 cm^3, total dose 60 mg/kg
  reduction of tumor volume (average): 45%
[2]; mouse, in vivo
  therapeutic response (in words): completely reducing subcutaneous tumors; also recorded: complete reduction of subcutaneous tumors
[3]; after second course, 75 mg/kg total dose
  long-term tumor-free survival (in excess of 7 months): 6/6
[3]; [11]
  mice with NED or minimal disease: 6/6
[3]; first treatment of day 35 tumors (average 2.5 cm^3), 6 doses of 12.5 mg/kg, twice a week
  reduction in the volume of the tumors (average): 91%
[4]; CASE tumors, after second course
  long-term tumor-free survival (in excess of 7 months): 7/8
[4]; [11]
  mice with NED or minimal disease: 6/6
[4]; second course, total of 14 doses of 12.5 mg/kg
  mice with NED: 5/6
[4]; second course, total of 14 doses of 12.5 mg/kg, of 6 mice
  mice with minimal disease: the other had minimal disease
[5]; second course, 50-75 mg/kg
  gastrointestinal toxicity or sterile hemorrhagic cystitis: no signs
[5]; second course, 50-75 mg/kg body weight
  toxicity of second course of treatment: more toxic than the first
[5]; twice/week treatment, total dose 150 mg/kg, 150 mg/kg
  Overall Toxicity: no overall toxicity
[5]; twice/week treatment, total dose 150 mg/kg, listed as 9-Amino-20(RS)-camptothecin, 150 mg/kg
  Overall Toxicity: none
[5]; twice/week treatment, total dose 175 mg/kg (cumulative)
  Overall Toxicity: body weight loss: ≤ 20%

## CCC1(O)C(=O)OCc2c1cc1n(c2=O)Cc2cc3cc4c(cc3nc2-1)OCO4 (racemic) [10,11-methylenedioxy-20(RS)-camptothecin]
[6]
  growth of metastases of human colon cancer in the liver: inhibited
  increase of survival: ~ 100%
  average survival: 46 days
[2]; 100 mg/kg, two times per week
  therapeutic response (in words): complete reduction of subcutaneous tumors
[2]; 100 mg/kg, two times per week, listed as 10,11-methylenedioxy-20(RS) camptothecin
  therapeutic response (in words): completely reducing subcutaneous tumors
[4]; [12]
  mice in which growth of day-7 tumors stopped: 6/6
  period for which growth of day-7 tumors stopped: 4-6 weeks
[7]
  activity in topoisomerase I-directed screens: highly active
[5]; 70 mg/kg body weight (total dose)
  decrease of body weight: less than 10%
[5]; twice/week treatment, total dose 100 mg/kg, 100 mg/kg
  Overall Toxicity: no overall toxicity
[5]; twice/week treatment, total dose 100 mg/kg, listed as 10,11-Methylenedioxy-20(RS), 100 mg/kg
  Overall Toxicity: none
[5]; twice/week treatment, total dose 100 mg/kg, listed as 10,11-methylenedioxy-20(RS) camptothecin, 100 mg/kg
  Overall Toxicity: no overall toxicity

## CCC1(O)C(=O)OCc2c1cc1n(c2=O)Cc2cc3cc(N)ccc3nc2-1 (racemic) [10-amino-20(RS)-camptothecin, reference compound]
[5]; 25 mg/kg body weight
  toxic deaths: toxic deaths of all animals
[5]; twice/week treatment, total dose 100 mg/kg
  Overall Toxicity: body weight loss: < 15%

## CCC(O)(C(=O)O)c1cc2n(c(=O)c1CO)Cc1cc3cc4c(cc3nc1-2)OCO4 (racemic) [sodium salt of 10,11-methylenedioxy-20(RS)-camptothecin]
[6]
  growth of metastases of human colon cancer in the liver: inhibited
  increase of survival: ~ 100%
  average survival: 46 days
[4]; [13]
  mice in which growth of day-7 tumors stopped: 6/6
  period for which growth of day-7 tumors stopped: 4 weeks
[7]
  activity in topoisomerase I-directed screens: highly active
[5]; 62.5 mg/kg body weight
  toxic deaths: toxic deaths of all animals
[5]; [14]
  Overall Toxicity: animal deaths
  Overall Toxicity: body weight loss: < 10%
[5]; daily treatment, total dose 200 mg/kg
  Overall Toxicity: animal deaths
[5]; [15]
  Overall Toxicity: body weight loss: 20%
[5]; twice/week treatment, total dose 62.5 mg/kg
  Overall Toxicity: animal deaths

## O=c1[nH]cc(F)c(=O)[nH]1 [5-fluorouracil]
[8]; human, in vivo
  effectiveness in treating colon cancer: only marginally effective
[8]; [16]
  cases with temporary improvement: ≤ 25%
  overall survival: not significantly affected
[1]; 80 mg/kg of body weight/dose
  growth-retardation of tumor implants: only marginal growth-retardation

## CC[C@@]1(O)C(=O)OCc2c1cc1n(c2=O)Cc2cc3ccccc3nc2-1 [20(S)-camptothecin, reference compound]
[5]; 50 mg/kg body weight
  toxic deaths: toxic deaths of all animals
[5]; twice/week treatment, total dose 28 mg/kg
  Overall Toxicity: body weight loss: > 15%
[5]; [15]
  Overall Toxicity: animal deaths
[5]; twice/week treatment, total dose 70 mg/kg
  Overall Toxicity: animal deaths
[9]
  activity against mouse leukemias: effective against mouse leukemias

## CN(Cc1cnc2nc(N)nc(N)c2n1)c1ccc(C(=O)N[C@@H](CCC(=O)O)C(=O)O)cc1 [methotrexate, reference compound]
[1]; 160 mg/kg body weight/dose
  growth-retardation of tumor implants: only marginal growth-retardation

## CC[C@@](O)(C(=O)O)c1cc2n(c(=O)c1CO)Cc1cc3ccccc3nc1-2 [sodium salt of 20(S)-camptothecin]
[10]; patients with various cancers
  limiting factor (toxicity): Leukopenia
  most prominent non-hematological complication: Hemorrhagic cystitis
[10]; patients
  gastrointestinal toxicity or sterile hemorrhagic cystitis observed among patients: observed
[10]; several patients, some with colorectal cancer, unresponsive to previous treatments
  clinical response: temporary relief of the disease
[10]; several patients, some with colorectal cancer
  median survival (in words): marginal prolongation of median survival
